Results as given in patent US11661400B2, “NADPH oxidase inhibitors, pharmaceutical composition comprising the same, and application thereof” (TAIWANJ PHARMACEUTICALS CO., LTD., priority 2018, dated 2023).

Experiments:
NOX2 = biological target: T1, NOX2 (Homo sapiens, UniProt P04839); experiment: NOX2 HL60 cell-based assay (PMA oxidative burst, L012 chemiluminescence); conditions: DMSO-differentiated HL-60 cells, PMA-stimulated; for inhibition at 0.1 µM: HL-60, 100 nM; for inhibition at 1 µM: HL-60, 1000 nM
T1 construct: HL-60 cells, rich in NOX2 expression; endogenous in cells; host or cells: DMSO-differentiated HL-60
T1 sequence (P04839 2-570 limits assumed): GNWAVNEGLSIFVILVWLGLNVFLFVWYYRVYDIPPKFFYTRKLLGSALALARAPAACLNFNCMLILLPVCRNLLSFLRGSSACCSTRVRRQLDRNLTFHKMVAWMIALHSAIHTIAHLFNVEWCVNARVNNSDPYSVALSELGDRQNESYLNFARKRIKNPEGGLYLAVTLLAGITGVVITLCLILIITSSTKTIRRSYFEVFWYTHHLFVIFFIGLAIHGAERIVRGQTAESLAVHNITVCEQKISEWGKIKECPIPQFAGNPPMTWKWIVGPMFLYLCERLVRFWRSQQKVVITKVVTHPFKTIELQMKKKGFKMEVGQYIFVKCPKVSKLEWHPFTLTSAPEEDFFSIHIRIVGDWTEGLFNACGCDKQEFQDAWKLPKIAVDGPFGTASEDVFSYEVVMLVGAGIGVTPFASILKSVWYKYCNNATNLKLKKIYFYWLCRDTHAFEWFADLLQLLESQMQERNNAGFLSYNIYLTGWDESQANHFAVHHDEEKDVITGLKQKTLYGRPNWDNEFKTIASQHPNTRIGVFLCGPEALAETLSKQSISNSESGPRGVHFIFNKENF
T1 sequence (P13498 2-195 partner limits assumed): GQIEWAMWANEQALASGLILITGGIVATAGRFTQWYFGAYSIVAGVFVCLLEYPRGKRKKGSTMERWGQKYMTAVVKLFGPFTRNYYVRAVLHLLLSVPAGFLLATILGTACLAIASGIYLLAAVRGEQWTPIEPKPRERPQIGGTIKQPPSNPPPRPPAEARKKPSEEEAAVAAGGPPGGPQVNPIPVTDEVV
Experimental: NOX2 HL60 Cell-Based Assay:
HL-60 cells, rich in NOX2 expression, was stimulated to undergo oxidative burst by phorbol myristate acetate (PMA). The ROS produced during this process was measured using the O2^−-specific chemiluminescent probe L012. L012 was added to DMSO-differentiated HL-60 cell suspensions to a final concentration of 100 μM. Then, 80 μL aliquots of cell suspension (2.5×10^5 cells) were transferred to individual wells of a 96-well plate. Test compounds were directly added to the wells at the specified concentrations. Following a 30-60 mins incubation at 37° C. in the dark, the oxidative burst was initiated by the addition of 10 ng/mL PMA, and the chemiluminescence signal was recorded every 5 min over a period of 60 mins in a SpectraMax i3 Multiplate reader (Molecular Devices, Sunnyvale, Calif., USA). • NOX4 HEK293 Overexpression Cell-Based Assay: […]

NOX1 = biological target: T2, NOX1 (Homo sapiens, UniProt Q9Y5S8); experiment: NOX1 HT29 cell-based assay (luminol/HRP luminescence); conditions: HT29 cells, DMSO = 0%, GKT137831 = 100%; for inhibition at 0.1 µM / inhibition at 1 µM: HT-29
T2 construct: endogenous in cells; host or cells: HT29
T2 sequence (Q9Y5S8 1-564): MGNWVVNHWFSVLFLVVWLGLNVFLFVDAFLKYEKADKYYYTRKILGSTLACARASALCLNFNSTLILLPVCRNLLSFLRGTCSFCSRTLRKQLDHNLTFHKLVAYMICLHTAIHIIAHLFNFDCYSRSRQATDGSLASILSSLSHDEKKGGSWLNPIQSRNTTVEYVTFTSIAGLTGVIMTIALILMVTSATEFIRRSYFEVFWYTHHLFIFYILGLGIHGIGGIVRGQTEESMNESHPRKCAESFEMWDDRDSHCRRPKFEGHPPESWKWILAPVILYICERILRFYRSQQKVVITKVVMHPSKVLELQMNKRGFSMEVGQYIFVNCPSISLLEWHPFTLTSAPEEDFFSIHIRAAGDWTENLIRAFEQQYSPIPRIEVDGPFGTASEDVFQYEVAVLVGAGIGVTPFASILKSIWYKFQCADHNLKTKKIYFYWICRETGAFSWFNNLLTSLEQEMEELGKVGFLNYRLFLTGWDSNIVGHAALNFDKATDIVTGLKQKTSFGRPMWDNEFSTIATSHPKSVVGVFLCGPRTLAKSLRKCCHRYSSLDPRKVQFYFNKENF
T2 sequence (P13498 2-195 partner limits assumed): T1 sequence (P13498 2-195 partner limits assumed)
Experimental: NOX1 HT29 Cell-Based Assay:
HT29 cells were cultured in T75 flask (Corning) and when 70-80% confluence was reached, cells were trypsinized, harvested in HBSS and counted. 1-2×10^5 cells were dispensed into individual wells in 70 μl final volume (96-well plates, white Corning). Cells were treated for 30-60 mins at 37° C. with 10 μl of GKT137831, DMSO and test compounds from their respective assay plates. This will correspond to a final concentration of 100 nM, 1000 nM GKT137831 or test compounds, and 0.1% DMSO. 20 μL of a mixture containing 100 μM luminol plus 0.4 units of HRP (final concentration) was added. Luminescence was quantified using a SpectraMax i3 Multiplate reader (Molecular Devices, Sunnyvale, Calif., USA). As designed, compounds that inhibit NOX1 activity will reduce cellular ROS production, leading to reduced probe-ROS interactions and reduced well luminescence. Compounds were tested in duplicate at a concentration of 100 nM and 1000 nM. DMSO and GKT137831 wells were applied as negative and positive controls, and the activities measured were set to 0% and 100%, respectively.

NOX4 = biological target: T3, NOX4 (Homo sapiens, UniProt Q9NPH5); experiment: NOX4 HEK293 overexpression cell-based assay (Amplex Red H2O2); conditions: HEK293 cells stably overexpressing NOX4, DMSO = 0, GKT137831 = 100; for inhibition at 0.1 µM: HEK293, 100 nM; for inhibition at 1 µM: HEK293, 1000 nM
T3 construct: expressed in transfected cells
T3 sequence (Q9NPH5 1-578): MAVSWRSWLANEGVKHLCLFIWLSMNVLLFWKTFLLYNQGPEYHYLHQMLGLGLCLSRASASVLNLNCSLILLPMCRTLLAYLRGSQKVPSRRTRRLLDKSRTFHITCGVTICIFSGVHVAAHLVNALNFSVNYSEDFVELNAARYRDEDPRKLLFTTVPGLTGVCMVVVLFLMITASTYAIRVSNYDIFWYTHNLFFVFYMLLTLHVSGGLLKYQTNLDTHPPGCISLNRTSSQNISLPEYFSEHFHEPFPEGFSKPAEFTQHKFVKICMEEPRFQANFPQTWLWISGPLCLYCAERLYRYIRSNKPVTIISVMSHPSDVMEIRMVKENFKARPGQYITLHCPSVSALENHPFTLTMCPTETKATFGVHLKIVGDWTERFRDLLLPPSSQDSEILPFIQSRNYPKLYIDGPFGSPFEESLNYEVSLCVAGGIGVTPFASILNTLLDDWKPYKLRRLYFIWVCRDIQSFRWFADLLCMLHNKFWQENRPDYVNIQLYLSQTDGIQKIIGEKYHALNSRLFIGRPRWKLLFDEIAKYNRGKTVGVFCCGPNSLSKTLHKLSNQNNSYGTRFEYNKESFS
T3 sequence (P13498 2-195 partner limits assumed): T1 sequence (P13498 2-195 partner limits assumed)
Experimental: Extracellular H2O2 measurement using Amplex™ Red Hydrogen Peroxide/Peroxidase Assay Kit (Catalog number: A22188; Invitrogen, Carlsbad, Calif., USA) was used to detect extracellular H2O2 release by HEK293 cells stably overexpressing NOX4. NOX4 clonal cells in log-phase growth were trypsinized, washed, and dispersed thoroughly. Following trypsinization, the cells (3×10^4) were resuspended in 100 μL of 1× Krebs-Ringer phosphate glucose (KRPG) buffer containing various concentrations of GKT137831 or test compounds and incubated at 37° C. for 30 min. Cells were mixed with 100 μL of Amplex Red reagent solution containing 50 μM Amplex Red and 0.1 units/mL of HRP in KRPG buffer; each assay condition was evaluated induplicate. The samples were incubated at 37° C. for 90 mins in the dark, and then centrifuged at 2,500 g for 5 mins. The supernatants were loaded to a 96 well plate, and then measured using a SpectraMax i3 Multiplate reader (Molecular Devices, Sunnyvale, Calif., USA) at 530 nm excitation and 590 nm emission respectively. DMSO and GKT137831 wells were applied as negative and positive controls, and the activities measured were set to 0 and 100, respectively.

With `COc1ccccc1-c1[nH]c2cccc(Br)c2c(=O)c1O` [Compound 25] the inhibition at 0.1 µM (NOX2) was at most 19%, the inhibition at 1 µM (NOX2) was 50 to 79% and the inhibition at 0.1 µM (NOX1; 100 nM) was 50 to 79%. The inhibition at 1 µM (NOX1; 1000 nM) was at least 80%, the “% Inhibition NOX4” value (NOX4; 1000 nM) was “C (the percent of inhibition of NOX by the compounds ranges from 2000 to 49%)” and the inhibition at 0.1 µM (NOX4) was at most 19%.
For `COc1cc2[nH]c(-c3ccccc3OC(F)(F)F)c(O)c(=O)c2cc1OC` [Compound 48], the “% Inhibition NOX2” value (NOX2; 100 nM, 0.1 µM) was “C (the percent of inhibition of NOX by the compounds ranges from 2000 to 49%)”, the “% Inhibition NOX2” value (NOX2; 1000 nM, 1 µM) was “B (the percent of inhibition of NOX by the compounds ranges from 50% o to 79% o)” and the “% Inhibition NOX1” value (NOX1; 100 nM) was “A (the percent of inhibition of NOX by the compounds is larger than or equals to 80%)”. The “% Inhibition NOX1” value (NOX1; 1000 nM) was “A (the percent of inhibition of NOX by the compounds is larger than or equals to 80%)”, the “% Inhibition NOX4” value (NOX4; 100 nM) was “C (the percent of inhibition of NOX by the compounds ranges from 2000 to 49%)” and the “% Inhibition NOX4” value (NOX4; 1000 nM, 1 µM) was “A (the percent of inhibition of NOX by the compounds is larger than or equals to 80%)”.
For `COc1cc2[nH]c(-c3ccc(Cl)cc3Cl)c(O)c(=O)c2cc1OC` [Compound 24], the “% Inhibition NOX2” value (NOX2; 100 nM, 0.1 µM) was “C (the percent of inhibition of NOX by the compounds ranges from 2000 to 49%)”, the inhibition at 1 µM (NOX2) was at least 80% and the inhibition at 0.1 µM (NOX1; 100 nM) was at least 80%. The inhibition at 1 µM (NOX1; 1000 nM) was at least 80%, the “% Inhibition NOX4” value (NOX4; 100 nM) was “C (the percent of inhibition of NOX by the compounds ranges from 2000 to 49%)” and the inhibition at 1 µM (NOX4) was 50 to 79%.
Compound `COc1cc2[nH]c(-c3ccccc3Cl)c(O)c(=O)c2cc1OC` [Compound 9] has an inhibition at 0.1 µM (NOX2) of at most 19%, an inhibition at 1 µM (NOX2) of at least 80% and an inhibition at 0.1 µM (NOX1; 100 nM) of at least 80%. For the same compound, the inhibition at 1 µM (NOX1; 1000 nM) was at least 80%, the “% Inhibition NOX4” value (NOX4; 1000 nM, 1 µM) was “A (the percent of inhibition of NOX by the compounds is larger than or equals to 80%)” and the inhibition at 0.1 µM (NOX4) was 50 to 79%.
In the case of `COc1cc2[nH]c(-c3ccccc3OC(F)(F)F)c(O)c(=O)c2cc1OC.Cl` [Compound 52], the “% Inhibition NOX2” value (NOX2; 100 nM) is reported as “C (the percent of inhibition of NOX by the compounds ranges from 2000 to 49%)”, the “% Inhibition NOX2” value (NOX2; 1000 nM) is reported as “B (the percent of inhibition of NOX by the compounds ranges from 50% o to 79% o)” and the “% Inhibition NOX1” value (NOX1; 100 nM) is reported as “A (the percent of inhibition of NOX by the compounds is larger than or equals to 80%)”. The “% Inhibition NOX1” value (NOX1; 1000 nM) was “A (the percent of inhibition of NOX by the compounds is larger than or equals to 80%)”, the “% Inhibition NOX4” value (NOX4; 100 nM) was “C (the percent of inhibition of NOX by the compounds ranges from 2000 to 49%)” and the “% Inhibition NOX4” value (NOX4; 1000 nM) was “B (the percent of inhibition of NOX by the compounds ranges from 50% o to 79% o)”.
With `COc1cc2[nH]c(-c3ccccc3C)c(O)c(=O)c2cc1OC` [Compound 16] the “% Inhibition NOX2” value (NOX2; 100 nM) was “C (the percent of inhibition of NOX by the compounds ranges from 2000 to 49%)”, the inhibition at 1 µM (NOX2) was at least 80% and the inhibition at 0.1 µM (NOX1; 100 nM) was at least 80%. The inhibition at 1 µM (NOX1; 1000 nM) was at least 80%, the inhibition at 0.1 µM (NOX4) was 50 to 79% and the inhibition at 1 µM (NOX4) was 50 to 79%.
`COc1cc2[nH]c(-c3ccc(Cl)cc3)c(O)c(=O)c2cc1OC` [Compound 45] was tested, and the “% Inhibition NOX2” value (NOX2; 100 nM) was “D (the percent of inhibition of NOX by the compounds is smaller than or equals to 19% o)”, the “% Inhibition NOX2” value (NOX2; 1000 nM) was “D (the percent of inhibition of NOX by the compounds is smaller than or equals to 19% o)” and the “% Inhibition NOX1” value (NOX1; 1000 nM) was “A (the percent of inhibition of NOX by the compounds is larger than or equals to 80%)”. For the same compound, the inhibition at 0.1 µM (NOX1; 100 nM) was at most 19%, the “% Inhibition NOX4” value (NOX4; 100 nM, 0.1 µM) was “C (the percent of inhibition of NOX by the compounds ranges from 2000 to 49%)” and the “% Inhibition NOX4” value (NOX4; 1000 nM) was “B (the percent of inhibition of NOX by the compounds ranges from 50% o to 79% o)”.
